Results on one substance are retold here after patent US8163477B2, “Nuclease-based method for detecting and quantitating oligonucleotides” (Isis Pharmaceuticals, Inc, priority 2000, dated 2012).

This series is described as follows: Plasma concentration after subcutaneous injection in mice (pharmacokinetic profile). The series is classed as in vivo. The settings on record: 50 mg/kg subcutaneous. As to the method: FIG. 5 is a graph showing the pharmacokinetic profile of ISIS 22023 following 50 mg/kg subcutaneous injection in mice. Plasma samples were analyzed at various time points using the oligonucleotide detection method of the present invention.
Detection of ISIS 22023 after injection in mice ISIS 22023 (50 mg/kg) was injected subcutaneously into mice and the plasma concentration was determined at various times post-injection by the method described in Example 1. […] The predicted and observed half lives corresponded very well.

On to “ISIS 2302: antisense oligonucleotide GCCCAAGCTGGCATCCGTCA (SEQ ID NO:2) (listed as DNA, chemistry not given here)”, for which the elimination half-life entry is “very long”.
